This note sets out measurements from patent publication US20210403485A1, “PYRAZOLOPYRIMIDINE DERIVATIVE AS SELECTIVE TRK INHIBITOR” (SHANDONG LUYE PHARMACEUTICAL CO., LTD., priority 2018, published 2021).

Molecules are shown by their SMILES.

The target in test [1] is T1, BaF3 LMNA-NTRK1-G667A (Homo sapiens, UniProt P04629, G667A, cells depend on it).
T1 construct: fused on or other part: N-terminal part of LMNA as fusion partner (part of the key); P02545 (Prelamin-A/C)
The test can be described thus: Inhibitory activity against cell proliferation (CellTiter-Glo, 72 hours). It is filed as cell-based. As to conditions: read-out: Half maximal inhibitory concentration IC50 of cells, BaF3 LMNA-NTRK1-G667A. Put shortly:
(§1)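 Log-phase Ba/F3 cells (trypan blue viability above 90%) were treated in triplicate with a 9-point, 3-fold compound series. ATP-dependent luminescence was read after CellTiter-Glo addition, and IC50 values came from nonlinear sigmoidal dose-response fits.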
On the technique in general: Cellular ATP, detected with luciferase, serves as a proxy for viable cell number.

Test [2] deals with T2, Ba/F3 LMNA-NTRK1-F589L (Homo sapiens, UniProt P04629, F589L, cells depend on it).
T2 construct: fused on or other part: N-terminal part of LMNA as fusion partner (part of the key); P02545 (Prelamin-A/C)
T2 sequence (P04629 whole entry F589L, the tested form may be a part): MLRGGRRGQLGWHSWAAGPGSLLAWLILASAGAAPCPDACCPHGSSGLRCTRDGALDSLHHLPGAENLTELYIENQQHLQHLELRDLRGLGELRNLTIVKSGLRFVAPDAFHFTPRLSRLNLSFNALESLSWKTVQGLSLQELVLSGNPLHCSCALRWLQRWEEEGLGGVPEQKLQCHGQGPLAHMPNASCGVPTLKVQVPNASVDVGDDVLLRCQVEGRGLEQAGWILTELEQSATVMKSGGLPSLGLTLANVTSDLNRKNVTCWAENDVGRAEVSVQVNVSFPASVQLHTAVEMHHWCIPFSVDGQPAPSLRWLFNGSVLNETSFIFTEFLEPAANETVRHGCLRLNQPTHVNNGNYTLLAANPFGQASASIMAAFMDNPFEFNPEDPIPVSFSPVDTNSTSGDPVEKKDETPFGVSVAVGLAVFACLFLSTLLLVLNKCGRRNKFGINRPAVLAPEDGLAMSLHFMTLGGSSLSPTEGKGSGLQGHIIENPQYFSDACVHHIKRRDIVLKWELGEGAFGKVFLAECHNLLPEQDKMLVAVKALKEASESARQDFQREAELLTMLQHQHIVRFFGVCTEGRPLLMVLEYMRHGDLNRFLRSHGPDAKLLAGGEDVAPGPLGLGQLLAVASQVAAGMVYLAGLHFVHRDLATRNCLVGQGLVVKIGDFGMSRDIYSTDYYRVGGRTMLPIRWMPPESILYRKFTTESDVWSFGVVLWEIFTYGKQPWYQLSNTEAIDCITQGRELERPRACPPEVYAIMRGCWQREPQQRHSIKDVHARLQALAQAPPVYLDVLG
The description is as above. It is filed as cell-based. As to conditions: read-out: Half maximal inhibitory concentration IC50 of cells, Ba/F3 LMNA-NTRK1-F589L. An outline of the steps:
as §1

The target in test [3] is T3, BaF3 LMNA-NTRK1-G595R (Homo sapiens, UniProt P04629, G595R, cells depend on it).
T3 construct: fused on or other part: N-terminal part of LMNA as fusion partner (part of the key); P02545 (Prelamin-A/C)
T3 sequence (P04629 whole entry G595R, the tested form may be a part): as the sequence (P04629 whole entry F589L, the tested form may be a part) above, with L589F, G595R counted along it
The test is described as above. Type of test: cell-based. As to conditions: read-out: Half maximal inhibitory concentration IC50 of cells, BaF3 LMNA-NTRK1-G595R. An outline of the steps: as §1

Test [4] concerns the target T4, BaF3 ETV6-NTRK3-WT (Homo sapiens, UniProt Q16288).
T4 construct: fused on or other part: N-terminal part of ETV6 (TEL) as fusion partner (part of the key); P41212 (Transcription factor ETV6)
The description is as above. Type of test: cell-based. The conditions noted are these: read-out: Half maximal inhibitory concentration IC50 of cells, BaF3 ETV6-NTRK3-WT. An outline of the steps:
as §1

For test [5], the target named is T5, Ba/F3 LMNA-NTRK1-WT (Homo sapiens, UniProt P04629).
T5 construct: fused on or other part: N-terminal part of LMNA as fusion partner (part of the key); P02545 (Prelamin-A/C)
T5 sequence (P04629 whole entry, change not shown, the tested form may be a part): as the sequence (P04629 whole entry F589L, the tested form may be a part) above, with L589F counted along it
The test is described as above. Type of test: cell-based. As to conditions: read-out: Half maximal inhibitory concentration IC50 of cells, Ba/F3 LMNA-NTRK1-WT. Put shortly: as §1

For test [6], the system named is Ba/F3 ETV6-NTRK3 cells. The test can be described thus: Efficacy test in animals: subcutaneous xenograft, intragastric administration. It is filed as in vivo, nude mice. The conditions noted are these: 100 mg/kg bid. Here is the method:
(§2) Cells in the logarithmic growth phase were collected and resuspended in serum-free medium to a cell concentration of 2-4×10^7 cells/mL. An equal volume of matrigel was added to the cell suspension to achieve a final cell concentration of 1-2×10^7 cells/mL. 0.2 mL of tumor cell suspension was subcutaneously inoculated at the scapula of each nude mouse with the inoculation amount of 2-4×10^6 cells/mouse to prepare the animal models.

The test system of test [7] is Ba/F3 ETV6-NTRK3-G623R cells. The description is as above. The conditions noted are these: 100 mg/kg bid. Type of test: in vivo, nude mice. On the procedure:
as §2

T4 sequence (Q16288 whole entry, change not shown, the tested form may be a part): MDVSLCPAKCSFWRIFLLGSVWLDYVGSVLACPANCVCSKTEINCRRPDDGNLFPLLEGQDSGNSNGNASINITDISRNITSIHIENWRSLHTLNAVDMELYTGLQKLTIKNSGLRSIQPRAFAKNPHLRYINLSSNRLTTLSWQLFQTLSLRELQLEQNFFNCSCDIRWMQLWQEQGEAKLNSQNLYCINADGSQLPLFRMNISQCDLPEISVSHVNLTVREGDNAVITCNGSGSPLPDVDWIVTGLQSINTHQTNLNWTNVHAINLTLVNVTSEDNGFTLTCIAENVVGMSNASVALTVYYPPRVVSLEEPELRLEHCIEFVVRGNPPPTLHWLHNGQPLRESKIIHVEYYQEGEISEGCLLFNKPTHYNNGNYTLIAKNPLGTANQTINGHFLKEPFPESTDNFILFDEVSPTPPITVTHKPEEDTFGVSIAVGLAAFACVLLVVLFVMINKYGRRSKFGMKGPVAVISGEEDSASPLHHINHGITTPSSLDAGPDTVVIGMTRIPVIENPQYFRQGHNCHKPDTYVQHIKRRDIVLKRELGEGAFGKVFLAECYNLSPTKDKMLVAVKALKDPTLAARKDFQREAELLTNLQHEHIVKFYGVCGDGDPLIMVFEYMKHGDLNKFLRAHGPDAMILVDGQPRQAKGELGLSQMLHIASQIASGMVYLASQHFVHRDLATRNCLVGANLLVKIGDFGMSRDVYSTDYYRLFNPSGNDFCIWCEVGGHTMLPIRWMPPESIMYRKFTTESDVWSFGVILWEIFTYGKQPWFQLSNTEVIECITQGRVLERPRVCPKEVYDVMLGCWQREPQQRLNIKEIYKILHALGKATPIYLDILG
T1 sequence (P04629 whole entry G667A, the tested form may be a part): as the sequence (P04629 whole entry F589L, the tested form may be a part) above, with L589F, G667A counted along it

As for `C[C@@H]1CCc2ncc(F)cc2[C@H]2CCCN2c2ccn3ncc(c3n2)C(=O)N1` [LOXO-195, reference compound], the GI50 in test [1] turned out to be 24.4 nM; in test [2], 44 nM; in test [3], 6.8 nM; in test [4] it was 2.6 nM; in test [5] it was 4.9 nM. Besides, the Tumor volume in test [6] (Day 0) was determined as 303.85 ± 42.83 mm^3; in test [6] (Day 3) it was 351.06 ± 144.65 mm^3; in test [6] (Day 5), 216.92 ± 62.19 mm^3; in test [6] (Day 7), 174.13 ± 102.49 mm^3; in test [6] (Day 9), 206.69 ± 107.53 mm^3; in test [6] (Day 11), 196.07 ± 88.87 mm^3. The Tumor volume in test [7] (Day 0) came out at 200.27 ± 30.38 mm^3; in test [7] (Day 3), 282.91 ± 82.61 mm^3; in test [7] (Day 5), 306.00 ± 115.66 mm^3; in test [7] (Day 7), 364.50 ± 212.47 mm^3; in test [7] (Day 9) it was 334.53 ± 184.22 mm^3; in test [7] (Day 11), 345.18 ± 306.01 mm^3. For the same molecule, the “TGI (tumor growth inhibition rate)” value in test [6] (day of dissection) turned out to be 94.80%; in test [7] (day of dissection), 90.07%. Further, the “Tumor inhibition rate (by tumor weight)” value in test [6] (end of the test) worked out at 94.86%; in test [7] (end of the test) it was 91.50%. Also, the values for the Tumor weight in test [6] (end of the test) and in test [7] (end of the test) were 0.09 ± 0.07 g and 0.15 ± 0.14 g, respectively.
